Tests used:
ASFV dUTPase [1] = molecular target: T1, ASFV dUTPase (African swine fever virus, UniProt Q65199); experiment: biochemical; type: binding
ASFV dUTPase [2] = molecular target: T1, ASFV dUTPase; type: biochemical
swine dUTPase = type: biochemical

T1 sequence (Q65199 whole entry, looked up): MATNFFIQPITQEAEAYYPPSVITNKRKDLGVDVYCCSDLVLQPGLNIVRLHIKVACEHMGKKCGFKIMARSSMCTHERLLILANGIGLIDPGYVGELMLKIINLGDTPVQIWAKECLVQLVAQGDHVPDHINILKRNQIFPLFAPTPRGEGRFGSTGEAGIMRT

Row | Compound | Kd (ASFV dUTPase [1]) | mode of inhibition (ASFV dUTPase [1]) | inhibition of enzyme activity of ASFV dUTPase (ASFV dUTPase [2]) | selectivity of inhibitory activity for ASFV dUTPase over swine dUTPase (swine dUTPase)
1 | O=c1ccn(CCCCNC(c2ccccc2)(c2ccccc2)c2ccccc2)c(=O)[nH]1 [compound 1] | 15.6 µM | competitive inhibitor | dose-dependent manner | selective for ASFV dUTPase over swine dUTPase
2 | O=c1ccn(CCCCOC(c2ccccc2)(c2ccccc2)c2ccccc2)c(=O)[nH]1 [compound 2] | cannot be calculated |  | dose-dependent manner | 
